# Laboratory results published in patent US20060223837A1 (priority 2005, published 2006).
# Key:
# human VR1 [1] = target: T1, human VR1 (Homo sapiens, UniProt Q8NER1); assay: Human VR1 functional assay (FLIPR intracellular Ca2+); type: cell-based; conditions: for IC50: antagonism of capsaicin-induced Ca2+ increase, read-out: h IC50; for inhibition at 5 µM / inhibition at 1 µM / h % I (10 μM) / inhibition at 10 µM / h % I (5 μM): inhibition of capsaicin response; for inhibition at 5 µM: read-out: h % I (5 μM); for inhibition at 1 µM: read-out: h % I (1 μM); for Emax at 6 µM: read-out: % Response Relative to EC80 of Capsaicin (6 μM); for Emax at 12 µM: read-out: % Response Relative to EC80 of Capsaicin (12 μM); for inhibition at 10 µM: read-out: h % I (10 μM); for EC50: agonist-induced Ca2+ increase, read-out: h EC50
# T1 construct: expressed in transfected cells; host or cells: HEK293
# T1 sequence (Q8NER1 whole entry): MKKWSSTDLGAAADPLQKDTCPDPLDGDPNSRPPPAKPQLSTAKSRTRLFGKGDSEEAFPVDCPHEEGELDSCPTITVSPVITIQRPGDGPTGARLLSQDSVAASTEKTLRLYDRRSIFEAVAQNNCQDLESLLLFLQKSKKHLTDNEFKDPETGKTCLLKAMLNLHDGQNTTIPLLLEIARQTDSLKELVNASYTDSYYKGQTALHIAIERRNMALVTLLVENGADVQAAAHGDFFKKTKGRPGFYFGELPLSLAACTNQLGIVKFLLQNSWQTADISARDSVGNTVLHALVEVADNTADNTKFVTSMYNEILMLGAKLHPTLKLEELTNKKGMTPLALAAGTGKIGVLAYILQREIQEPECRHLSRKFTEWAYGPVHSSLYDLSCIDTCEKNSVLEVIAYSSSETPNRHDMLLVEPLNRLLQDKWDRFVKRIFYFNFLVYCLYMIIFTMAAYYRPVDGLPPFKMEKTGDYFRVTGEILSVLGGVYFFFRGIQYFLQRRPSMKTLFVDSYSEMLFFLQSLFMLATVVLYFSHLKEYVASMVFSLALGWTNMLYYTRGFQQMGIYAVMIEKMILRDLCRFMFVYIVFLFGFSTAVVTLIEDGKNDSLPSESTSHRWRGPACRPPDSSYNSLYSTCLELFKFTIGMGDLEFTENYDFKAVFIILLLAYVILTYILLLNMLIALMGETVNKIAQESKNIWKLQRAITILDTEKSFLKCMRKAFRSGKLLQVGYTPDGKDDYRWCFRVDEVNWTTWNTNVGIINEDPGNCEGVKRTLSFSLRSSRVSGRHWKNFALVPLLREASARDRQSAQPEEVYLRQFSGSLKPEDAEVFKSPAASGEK
# In short: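 Read-out was Ca2+-dye fluorescence by FLIPR: compounds at varying concentrations were added to dye-loaded human VR1 HEK293 cells and monitored 5 min before capsaicin addition ([…], approx. EC80). Dose-response data, averaged over four wells, gave EC50 or IC50.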
# human VR1 [2] = target: T1, human VR1; assay: Human VR1 [3H]RTX binding assay; conditions: for Ki: [3H]RTX binding, HEK293 membranes; for h Binding % I (1 μM) / inhibition at 1 µM: inhibition of [3H]RTX binding at 1 μM; for inhibition at 1 µM: read-out: h Binding % I (1 μM)
# In short: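 Inhibition of [3H]resiniferatoxin binding measured on HEK293-hVR1 membranes over 60 min at 37 C, pH 7.4 HEPES buffer containing BSA. Pellet radioactivity counted; 200 nM cold RTX gave nonspecific binding. % inhibition computed and Ki derived from duplicate measurements.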
compound,measurement,setting,value
O=C(CCc1ccc(C(F)(F)F)cc1)Nc1ccc(-c2cccc(O)c2)c(C(F)(F)F)c1 [Cpd 206],IC50,human VR1 [1],39.4 nM
same,inhibition at 5 µM,human VR1 [1],100%
same,Ki,human VR1 [2],64.6 nM
O=C(/C=C/c1ccc(SC(F)(F)F)cc1)Nc1ccc(-n2cnc(Cl)c2Cl)c(C(F)(F)F)c1 [Cpd 228],IC50,human VR1 [1],171 nM
same,inhibition at 1 µM,human VR1 [1],92%
same,Ki,human VR1 [2],41.6 nM
CC(C)(C)c1ccc(CCC(=O)Nc2ccccc2-c2ccc(O)cc2)cc1 [Cpd 1],h % I (10 μM),human VR1 [1],45%
same,h Binding % I (1 μM),human VR1 [2],1%
CC(C)(C)c1ccc(CCC(=O)Nc2ccc(-c3ccncc3)c(F)c2)cc1 [Cpd 182],Emax at 6 µM,"human VR1 [1]; agonist response, 6 μM",97%
same,inhibition at 1 µM,human VR1 [1],80%
same,Ki,human VR1 [2],55 nM
"Cc1cn(-c2ccc(NC(=O)CCc3ccc(C(F)(F)F)cn3)cc2C(F)(F)F)cn1 [Cpd 233, N-[4-(4-Methyl-imidazol-1-yl)-3-trifluoromethyl-phenyl]-3-(5-trifluoromethyl-pyridin-2-yl)-propionamide]",IC50,human VR1 [1],259 nM
same,inhibition at 1 µM,human VR1 [1],98%
same,Ki,human VR1 [2],1000 nM
CC(C)(C)c1ccc(CCC(=O)Nc2ccc(-c3ccc(CO)cc3)cc2)cc1 [Cpd 24],Emax at 12 µM,human VR1 [1]; agonist response,68%
same,inhibition at 10 µM,human VR1 [1],32%
same,Ki,human VR1 [2],84 nM
same,inhibition at 1 µM,human VR1 [2],87%
CC(C)(C)c1ccc(CCC(=O)Nc2cccc(-c3ccc(O)cc3)c2)cc1 [Cpd 2],h % I (10 μM),human VR1 [1],41%
same,h Binding % I (1 μM),human VR1 [2],11%
"CC(C)(C)c1ccc(CCC(=O)Nc2ccc(-c3cccc(C(N)=O)c3)cc2)cc1 [Cpd 31, 4′-[3-(4-tert-butyl-phenyl)-propionylamino]-biphenyl-3-carboxylic acid amide]",inhibition at 10 µM,human VR1 [1],28%
same,inhibition at 1 µM,human VR1 [2],4%
CC(C)(C)c1ccc(CCC(=O)Nc2ccc(-c3cccc(O)c3)cc2CO)cc1 [Cpd 71],h % I (10 μM),human VR1 [1],5%
same,h Binding % I (1 μM),human VR1 [2],1%
"CC(C)(C)c1ccc(CCC(=O)Nc2ccc(-c3cccc(C(=O)O)c3)cc2)cc1 [Cpd 30, 4′-[3-(4-tert-butyl-phenyl)-propionylamino]-biphenyl-3-carboxylic acid]",Emax at 12 µM,human VR1 [1]; agonist response,94%
same,EC50,human VR1 [1],1420 nM
same,inhibition at 1 µM,human VR1 [2],2%
CC(C)(C)c1ccc(CCC(=O)Nc2ccc(-c3cccc(F)c3)cc2)cc1 [Cpd 15],% Response Relative to EC80 of Capsaicin (12 μM),human VR1 [1]; agonist response,80%
same,h Binding % I (1 μM),human VR1 [2],41%
O=C(/C=C/c1ccc(S(=O)(=O)C(F)(F)F)cc1)Nc1ccc(-n2cnc(Cl)c2Cl)c(C(F)(F)F)c1 [Cpd 217],IC50,human VR1 [1],87 nM
same,inhibition at 1 µM,human VR1 [1],101%
same,Ki,human VR1 [2],47.7 nM
CC(=O)Nc1cccc(-c2ccc(NC(=O)CCc3ccc(C(C)(C)C)cc3)c3ccccc23)c1 [Cpd 81],h % I (5 μM),human VR1 [1],11%
same,h Binding % I (1 μM),human VR1 [2],6%
CC(C)(C)c1ccc(CCC(=O)Nc2ccc(-c3ccccc3O)c(CO)c2)cc1 [Cpd 92],Emax at 6 µM,"human VR1 [1]; agonist response, 6 μM",133%
same,EC50,human VR1 [1],111 nM
same,inhibition at 1 µM,human VR1 [1],84%
same,Ki,human VR1 [2],89 nM
Cn1cncc1-c1ccc(NC(=O)CCc2ccc(C(C)(C)C)cc2)cc1 [Cpd 191],IC50,human VR1 [1],0.972 nM
same,inhibition at 1 µM,human VR1 [2],19%
"O=C(CCc1ccc(C(F)(F)F)cc1)Nc1cnc(-c2cccc(O)c2)c(C(F)(F)F)c1 [Cpd 210, N-[6-(3-Hydroxy-phenyl)-5-trifluoromethyl-pyridin-3-yl]-3-(4-trifluoromethyl-phenyl)-propionamide]",IC50,human VR1 [1],57 nM
same,inhibition at 5 µM,human VR1 [1],100%
same,Ki,human VR1 [2],54.5 nM
CC(C)(C)c1ccc(CCC(=O)Nc2ccc(-c3cccc(O)c3)c(C(=O)O)c2)cc1 [Cpd 74],h % I (10 μM),human VR1 [1],8%
same,h Binding % I (1 μM),human VR1 [2],1%
CC(C)(C)c1ccc(CCC(=O)Nc2ccc(-c3ccccn3)nc2)cc1 [Cpd 176],inhibition at 1 µM,human VR1 [1],99%
same,inhibition at 5 µM,human VR1 [1],22%
same,Ki,human VR1 [2],66 nM
"O=C(CCc1ccc(C(F)(F)F)cc1)Nc1ccc(-n2cnc(Cl)c2)c(C(F)(F)F)c1 [Cpd 227, N-[4-(4-Chloro-imidazol-1-yl)-3-trifluoromethyl-phenyl]-3-(4-trifluoromethyl-phenyl)-propionamide]",IC50,human VR1 [1],168 nM
same,inhibition at 1 µM,human VR1 [1],100%
same,Ki,human VR1 [2],90.8 nM
"Cc1cc(NC(=O)CCc2ccc(C(F)(F)F)cc2)cnc1-n1cnc(Cl)c1Cl [Cpd 203, N-[6-(4,5-Dichloro-imidazol-1-yl)-5-methyl-pyridin-3-yl]-3-(4-trifluoromethyl-phenyl)-propionamide]",IC50,human VR1 [1],35.2 nM
same,inhibition at 1 µM,human VR1 [1],99%
same,inhibition at 5 µM,human VR1 [1],100%
same,Ki,human VR1 [2],34 nM
NC(=O)c1cccc(-c2ccc(NC(=O)CCc3ccc(C(F)(F)F)cc3)cn2)c1 [Cpd 144],% Response Relative to EC80 of Capsaicin (12 μM),human VR1 [1]; agonist response,73%
same,h Binding % I (1 μM),human VR1 [2],1%
CC(C)(C)c1ccc(CCC(=O)Nc2ccc(-c3cccc(NC(N)=O)c3)cc2)cc1 [Cpd 44],Emax at 12 µM,human VR1 [1]; agonist response,102%
same,EC50,human VR1 [1],289 nM
same,Ki,human VR1 [2],52 nM
same,inhibition at 1 µM,human VR1 [2],97%
CC(C)(C)c1ccc(CCC(=O)Nc2ccc(-c3ccncc3)nc2)cc1 [Cpd 137],Emax at 12 µM,human VR1 [1]; agonist response,96%
same,Ki,human VR1 [2],93 nM
same,inhibition at 1 µM,human VR1 [2],66%
CC(C)(C)c1ccc(CCC(=O)Nc2cccc(-c3cccc(C(N)=O)c3)c2)cc1 [Cpd 37],h % I (10 μM),human VR1 [1],16%
same,h Binding % I (1 μM),human VR1 [2],21%
CC(=O)Nc1cccc(-c2ccc(NC(=O)CCc3ccc(C(C)(C)C)cc3)cc2)c1 [Cpd 16],Emax at 6 µM,"human VR1 [1]; agonist response, 6 μM",63%
same,Emax at 12 µM,human VR1 [1]; agonist response,101%
same,Ki,human VR1 [2],169 nM
same,inhibition at 1 µM,human VR1 [2],68%
CC(C)(C)c1ccc(CCC(=O)Nc2cc(F)c(-c3ccncc3)c(F)c2)cc1 [Cpd 169],Emax at 6 µM,"human VR1 [1]; agonist response, 6 μM",45%
same,inhibition at 1 µM,human VR1 [1],96%
same,Ki,human VR1 [2],48 nM
Cc1cc(-c2cccc(O)c2)ccc1NC(=O)CCc1ccc(C(C)(C)C)cc1 [Cpd 58],% Response Relative to EC80 of Capsaicin (6 μM),"human VR1 [1]; agonist response, 6 μM",19%
same,h Binding % I (1 μM),human VR1 [2],43%
NC(=O)c1cccc(-c2ccc(NC(=O)CCc3ccc(C(F)(F)F)cc3)c3ccccc23)c1 [Cpd 83],h % I (5 μM),human VR1 [1],31%
same,h Binding % I (1 μM),human VR1 [2],1%
CC(C)(C)c1ccc(CCC(=O)Nc2ccc(-c3cccc(OCCN)c3)cc2)cc1 [Cpd 45],Emax at 12 µM,human VR1 [1]; agonist response,84%
same,EC50,human VR1 [1],2400 nM
same,inhibition at 1 µM,human VR1 [2],16%
O=C(CCc1ccc(C(F)(F)F)cc1)Nc1ccc(-c2ccc(O)cc2)cc1 [Cpd 78],Emax at 12 µM,human VR1 [1]; agonist response,70%
same,Ki,human VR1 [2],289 nM
same,inhibition at 1 µM,human VR1 [2],56%
CC(=O)Nc1cccc(-c2ccc(NC(=O)CCc3ccc(C(F)(F)F)cc3)c3ccccc23)c1 [Cpd 84],h % I (5 μM),human VR1 [1],43%
same,h Binding % I (1 μM),human VR1 [2],1%
CC(=O)Nc1cccc(-c2ccc(NC(=O)CCc3ccc(C(C)(C)C)cc3)cc2F)c1 [Cpd 57],Emax at 12 µM,human VR1 [1]; agonist response,84%
same,Ki,human VR1 [2],266 nM
same,inhibition at 1 µM,human VR1 [2],66%
O=C(CCc1ccc(C(F)(F)F)cc1)Nc1ccc(-c2ccnc(F)c2)c(C(F)(F)F)c1 [Cpd 254],IC50,human VR1 [1],995 nM
same,inhibition at 5 µM,human VR1 [1],98%
same,Ki,human VR1 [2],293 nM
O=C(CCc1ccc(Cl)cc1)Nc1ccc(-n2ccnc2)c(C(F)(F)F)c1 [Cpd 242],IC50,human VR1 [1],400 nM
same,inhibition at 1 µM,human VR1 [1],76%
same,Ki,human VR1 [2],2110 nM
Cc1cc(NC(=O)CCc2ccc(C(C)(C)C)cc2)cnc1-n1ccnc1 [Cpd 214],IC50,human VR1 [1],73.2 nM
same,inhibition at 5 µM,human VR1 [1],91%
same,Ki,human VR1 [2],536 nM
O=C(CCc1ccc(C(F)(F)F)cc1)Nc1ccc(-c2ccncc2)c(C(F)(F)F)c1 [Cpd 220],IC50,human VR1 [1],121 nM
same,inhibition at 5 µM,human VR1 [1],100%
same,Ki,human VR1 [2],99.8 nM
CC(C)(C)c1ccc(CCC(=O)Nc2ccc(-n3cnc(Cl)c3Cl)cc2)cc1 [Cpd 211],IC50,human VR1 [1],60 nM
same,inhibition at 5 µM,human VR1 [1],99%
same,Ki,human VR1 [2],22.2 nM
CC(C)(C)c1ccc(CCC(=O)Nc2cccc(-c3ccccc3O)c2)cc1 [Cpd 9],h % I (10 μM),human VR1 [1],16%
same,h Binding % I (1 μM),human VR1 [2],1%
CC(=O)Nc1cccc(-c2ccc(NC(=O)CCc3ccc(C(C)(C)C)cc3)cc2C(=O)O)c1 [Cpd 73],h % I (10 μM),human VR1 [1],20%
same,h Binding % I (1 μM),human VR1 [2],1%
CC(C)(C)c1ccc(CCC(=O)Nc2ccc(-c3cccc(C(F)(F)F)c3)cc2)cc1 [Cpd 12],% Response Relative to EC80 of Capsaicin (12 μM),human VR1 [1]; agonist response,47%
same,h Binding % I (1 μM),human VR1 [2],36%
